Molecules are shown by their SMILES. Inconclusive results are not listed.

The target of the experiment is Sodium- and chloride-dependent glycine transporter 1 (Homo sapiens) (UniProt P48067). Description: PubChem AID 1794809. To be noted: HEK-293 SLC6A9 OE, FLIPR membrane potential dye.
Sodium- and chloride-dependent glycine transporter 1 (Homo sapiens), sequence (P48067 whole entry, looked up): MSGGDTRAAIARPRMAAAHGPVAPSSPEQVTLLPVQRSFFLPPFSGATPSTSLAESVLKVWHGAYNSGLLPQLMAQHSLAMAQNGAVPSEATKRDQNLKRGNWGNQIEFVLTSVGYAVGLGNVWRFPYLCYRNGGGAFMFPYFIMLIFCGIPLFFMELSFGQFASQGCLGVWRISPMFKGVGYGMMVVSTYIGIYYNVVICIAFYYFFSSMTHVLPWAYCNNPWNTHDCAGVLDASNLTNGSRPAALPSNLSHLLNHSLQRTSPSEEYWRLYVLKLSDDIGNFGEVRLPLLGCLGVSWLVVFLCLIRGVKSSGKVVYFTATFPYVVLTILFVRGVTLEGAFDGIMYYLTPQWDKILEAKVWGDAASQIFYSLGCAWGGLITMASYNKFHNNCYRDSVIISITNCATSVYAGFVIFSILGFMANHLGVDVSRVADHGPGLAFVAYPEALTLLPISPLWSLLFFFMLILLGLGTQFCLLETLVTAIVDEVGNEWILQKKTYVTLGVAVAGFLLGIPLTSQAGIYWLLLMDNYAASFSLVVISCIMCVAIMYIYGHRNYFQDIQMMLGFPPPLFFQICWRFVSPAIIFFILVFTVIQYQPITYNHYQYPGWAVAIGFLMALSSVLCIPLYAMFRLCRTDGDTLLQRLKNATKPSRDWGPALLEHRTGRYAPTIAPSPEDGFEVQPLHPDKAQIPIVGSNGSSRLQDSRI

For `NCC(=O)O`, the 50% effective concentration (EC50) was 106 µM.

One may read the EC50 as the midpoint of the concentration-response curve.

For the origin of these results see PubChem BioAssay AID1794809.
